Reference: US20260146035A1, “FUSED BICYCLIC COMPOUNDS AND THEIR USE AS MER AND AXL INHIBITORS” (DONG-A ST CO., LTD., priority 2022, published 2026)

What was measured:
[1] = molecular target: T1, human TYRO3 (455-end) (Homo sapiens, UniProt Q06418); experiment: HTRF kinase activity biochemical assay, TYRO3; details: 10 μM ATP, 30 minutes pre-incubation; read-out: HTRF TYRO IC50
T1 construct: TYRO3 (455-end); purchased SignalChem, Canada
T1 sequence (Q06418 455-890 limits assumed): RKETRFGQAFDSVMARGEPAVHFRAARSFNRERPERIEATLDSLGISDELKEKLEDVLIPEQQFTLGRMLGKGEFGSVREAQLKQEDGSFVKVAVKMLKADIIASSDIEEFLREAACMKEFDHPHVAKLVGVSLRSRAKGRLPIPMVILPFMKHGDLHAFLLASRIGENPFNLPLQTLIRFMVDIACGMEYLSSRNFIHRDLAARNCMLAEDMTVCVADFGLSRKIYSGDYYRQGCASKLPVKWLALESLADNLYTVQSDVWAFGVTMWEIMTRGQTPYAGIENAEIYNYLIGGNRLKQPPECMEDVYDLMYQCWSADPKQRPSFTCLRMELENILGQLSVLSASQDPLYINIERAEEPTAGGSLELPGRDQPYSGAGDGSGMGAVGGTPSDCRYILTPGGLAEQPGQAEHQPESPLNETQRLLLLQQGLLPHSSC
Description: (§1) For the SAR (structure-activity relationship) and compound screening, HTRF (Homogeneous Time Resolved Fluorescence) kinase activity assay was employed for all MER, AXL and TYRO3 kinases using Cisbio HTRF® KinEASE™-TK kit (Cisbio, USA). The kit included biotin-labeled TK substrate, streptavidin-XL665, Eu3+-cryptate-labeled TK antibody and HTRF® Detection buffer. There are two main steps in the kinase assay: kinase reaction and detection of phosphorylated substrate. The reaction was carried out in white low volume 384-well plate (Corning, USA) with 25 nL compound in dimethyl sulfoxide in each well. […] After 1 hour incubation at room temperature, the fluorescence intensity was measured with Envision[…] plate reader (PerkinElmer, USA). Upon excitation at 340 nm by UV, the energy from Eu3+ donor of the antibody is transferred to the FRET acceptor XL665, and […] emits light at 665 nm.

[2] = molecular target: T2, human MER (528-end) (Homo sapiens, UniProt Q12866); experiment: HTRF kinase activity biochemical assay, MER; details: 10 μM ATP, 30 minutes pre-incubation; read-out: HTRF MERTK IC50
T2 construct: human MER (528-end); purchased Camnabio, Japan
T2 sequence (Q12866 528-999 limits assumed): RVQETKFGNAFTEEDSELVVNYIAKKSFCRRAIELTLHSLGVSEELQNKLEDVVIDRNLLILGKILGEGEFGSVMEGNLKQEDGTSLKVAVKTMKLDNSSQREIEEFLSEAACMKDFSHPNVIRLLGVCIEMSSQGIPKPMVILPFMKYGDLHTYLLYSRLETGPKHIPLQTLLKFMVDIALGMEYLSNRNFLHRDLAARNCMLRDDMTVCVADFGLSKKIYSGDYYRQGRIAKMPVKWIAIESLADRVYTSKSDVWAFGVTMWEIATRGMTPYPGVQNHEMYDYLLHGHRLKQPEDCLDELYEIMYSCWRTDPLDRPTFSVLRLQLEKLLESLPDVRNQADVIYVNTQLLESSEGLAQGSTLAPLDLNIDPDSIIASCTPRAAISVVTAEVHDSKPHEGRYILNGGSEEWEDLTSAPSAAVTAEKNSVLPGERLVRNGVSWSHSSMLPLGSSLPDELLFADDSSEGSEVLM
Description: as §1

[3] = molecular target: T3, human AXL (473-end) (Homo sapiens, UniProt P30530); experiment: HTRF kinase activity biochemical assay, AXL; details: 10 μM ATP, 30 minutes pre-incubation
T3 construct: human AXL (473-end); purchased SignalChem, Canada
T3 sequence (P30530 473-894 limits assumed): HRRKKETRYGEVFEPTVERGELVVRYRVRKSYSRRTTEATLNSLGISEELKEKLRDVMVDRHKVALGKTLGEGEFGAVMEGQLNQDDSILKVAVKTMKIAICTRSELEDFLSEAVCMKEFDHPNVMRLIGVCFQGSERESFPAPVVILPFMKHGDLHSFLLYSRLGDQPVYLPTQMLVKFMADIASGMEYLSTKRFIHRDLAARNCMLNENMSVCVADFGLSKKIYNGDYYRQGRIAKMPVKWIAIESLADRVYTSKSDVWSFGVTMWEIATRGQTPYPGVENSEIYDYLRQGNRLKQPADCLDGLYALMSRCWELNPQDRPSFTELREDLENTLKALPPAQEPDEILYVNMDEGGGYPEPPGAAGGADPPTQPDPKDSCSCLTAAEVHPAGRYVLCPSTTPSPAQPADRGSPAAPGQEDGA
Description: as §1

Cn1ccc(-c2cnc(N)c(C(=O)N[C@H]3CCC[C@@H]3OCc3ccc(-c4ccc5c(c4)CC(F)(F)C5N4CCN(CC(O)CO)CC4)cc3)c2)cc1=O (stereo partly drawn) [Example 63, 6-amino-N-{(1S,2S)-2-[(4-{1-[4-(2,3-dihydroxypropyl)piperazin-1-yl]-2,2-difluoro-2,3-dihydro-1H-inden-5-yl}phenyl)methoxy]cyclopentyl}-1′-methyl-2′-oxo-1′,2′-dihydro[3,4′-bipyridine]-5-carboxamide]
IC50 [1]: 100 to 1000 nM
IC50 [2]: < 10 nM
IC50 [3]: < 10 nM

Cn1cc(-c2cnc(N)c(C(=O)N[C@H]3CCC[C@@H]3OCc3ccc(-c4ccc5c(c4)C[C@H](F)[C@@H]5N4CCN(CCO)CC4)cc3)c2)ccc1=O (relative stereo) [Example 90, 6-amino-N-{(1S,2S)-2-[(4-{(1R*,2S*)-2-fluoro-1-[4-(2-hydroxyethyl)piperazin-1-yl]-2,3-dihydro-1H-inden-5-yl}phenyl)methoxy]cyclopentyl}-1′-methyl-6′-oxo-1′,6′-dihydro[3,3′-bipyridine]-5-carboxamide]
IC50 [1]: > 1000 nM
IC50 [2]: < 10 nM
IC50 [3]: < 10 nM

Cn1cc(-c2cnc(N)c(C(=O)N[C@H]3COC[C@@H]3OCc3ccc(-c4ccc5c(c4)C(C)(C)CN5C4CCN(CCO)CC4)cc3)n2)cn1 [Example 71, 3-amino-N-{(3S,4R)-4-[(4-{1-[1-(2-hydroxyethyl)piperidin-4-yl]-3,3-dimethyl-2,3-dihydro-1H-indol-5-yl}phenyl)methoxy]oxolan-3-yl}-6-(1-methyl-1H-pyrazol-4-yl)pyrazine-2-carboxamide]
IC50 [1]: 100 to 1000 nM
IC50 [2]: < 10 nM
IC50 [3]: 10 to 100 nM

CC1(C)CN(C2CCN(CCO)CC2)c2ccc(-c3ccc(CO[C@H]4CCC[C@@H]4NC(=O)c4nc(-c5ccc(F)nc5)cnc4N)cc3)cc21 [Example 41, 3-amino-6-(6-fluoropyridin-3-yl)-N-{(1S,2S)-2-[(4-{1-[1-(2-hydroxyethyl)piperidin-4-yl]-3,3-dimethyl-2,3-dihydro-1H-indol-5-yl}phenyl)methoxy]cyclopentyl}pyrazine-2-carboxamide]
IC50 [1]: 100 to 1000 nM
IC50 [2]: < 10 nM
IC50 [3]: 10 to 100 nM

Cn1cc(-c2cnc(N)c(C(=O)N[C@H]3CCC[C@@H]3OCc3ccc(-c4ccc5[nH]c(C(F)(F)F)cc5c4)cc3)c2)cn1 [Example 53, 2-amino-5-(1-methyl-1H-pyrazol-4-yl)-N-[(1S,2S)-2-({4-[2-(trifluoromethyl)-1H-indol-5-yl]phenyl}methoxy)cyclopentyl]pyridine-3-carboxamide]
IC50 [1]: > 1000 nM
IC50 [2]: 100 to 1000 nM
IC50 [3]: 100 to 1000 nM

Cn1cc(-c2cnc(N)c(C(=O)N[C@H]3CCC[C@@H]3OCc3ccc(-c4ccc5c(ccn5CCC(=O)O)c4)cc3)c2)cn1 [Example 58, 3-{5-[4-({[(1S,2S)-2-{[2-amino-5-(1-methyl-1H-pyrazol-4-yl)pyridine-3-carbonyl]amino}cyclopentyl]oxy}methyl)phenyl]-1H-indol-1-yl}propanoic acid]
IC50 [1]: > 1000 nM
IC50 [2]: 10 to 100 nM
IC50 [3]: 100 to 1000 nM

COc1ccnc(N)c1C(=O)N[C@H]1CCC[C@@H]1OCc1ccc(-c2ccc3c(c2)CC[C@@H]3N2CCN(CCO)CC2)cc1 [Example 137, 2-amino-N-{(1S,2S)-2-[(4-{(1S)-1-[4-(2-hydroxyethyl)piperazin-1-yl]-2,3-dihydro-1H-inden-5-yl}phenyl)methoxy]cyclopentyl}-4-methoxypyridine-3-carboxamide]
IC50 [1]: 100 to 1000 nM
IC50 [2]: < 10 nM
IC50 [3]: < 10 nM

Nc1ncc(-c2cccnc2F)cc1C(=O)N[C@H]1CCC[C@@H]1OCc1ccc(-c2ccc3c(c2)CC[C@@H]3N2CCN(C[C@@H](O)CO)CC2)cc1 [Example 167, 6-amino-N-[(1S,2S)-2-({4-[(1S)-1-{4-[(2R)-2,3-dihydroxypropyl]piperazin-1-yl}-2,3-dihydro-1H-inden-5-yl]phenyl}methoxy)cyclopentyl]-2′-fluoro[3,3′-bipyridine]-5-carboxamide]
IC50 [1]: 100 to 1000 nM
IC50 [3]: < 10 nM

CN1CCN([C@@H]2CC(C)(C)c3cc(-c4ccc(CO[C@H]5CCC[C@@H]5NC(=O)c5cc(-c6cnn(C)c6)cnc5N)cc4)ccc32)CC1 [Example 145, 2-amino-N-[(1S,2S)-2-({4-[(1R)-3,3-dimethyl-1-(4-methylpiperazin-1-yl)-2,3-dihydro-1H-inden-5-yl]phenyl}methoxy)cyclopentyl]-5-(1-methyl-1H-pyrazol-4-yl)pyridine-3-carboxamide]
IC50 [1]: > 1000 nM
IC50 [2]: 10 to 100 nM
IC50 [3]: 10 to 100 nM

Nc1ncc(-c2cccnc2F)cc1C(=O)N[C@H]1CCC[C@@H]1OCc1ccc(-c2ccc3c(c2)CC[C@@H]3N2CCN(C[C@H](O)CO)CC2)cc1 [Example 166, 6-amino-N-[(1S,2S)-2-({4-[(1S)-1-{4-[(2S)-2,3-dihydroxypropyl]piperazin-1-yl}-2,3-dihydro-1H-inden-5-yl]phenyl}methoxy)cyclopentyl]-2′-fluoro[3,3′-bipyridine]-5-carboxamide]
IC50 [1]: 100 to 1000 nM
IC50 [3]: < 10 nM

Nc1ncc(-c2ccc(F)nc2)cc1C(=O)N[C@H]1CCC[C@@H]1OCc1ccc(-c2ccc3c(c2)CCC3N2CCN(CC(O)CO)CC2)cc1 (stereo partly drawn) [Example 80, 6-amino-N-{(1S,2S)-2-[(4-{1-[4-(2,3-dihydroxypropyl)piperazin-1-yl]-2,3-dihydro-1H-inden-5-yl}phenyl)methoxy]cyclopentyl}-6′-fluoro[3,3′-bipyridine]-5-carboxamide]
IC50 [1]: 100 to 1000 nM
IC50 [3]: < 10 nM

Nc1ncc(-c2cccnc2F)cc1C(=O)N[C@H]1CCC[C@@H]1OCc1ccc(-c2ccc3c(c2)CCC3N2CCN(CCO)CC2)cc1 (stereo partly drawn) [Example 82, 6-amino-2′-fluoro-N-{(1S,2S)-2-[(4-{1-[4-(2-hydroxyethyl)piperazin-1-yl]-2,3-dihydro-1H-inden-5-yl}phenyl)methoxy]cyclopentyl}[3,3′-bipyridine]-5-carboxamide]
IC50 [1]: 100 to 1000 nM
IC50 [3]: < 10 nM

Nc1ncc(-c2cccnc2F)cc1C(=O)N[C@H]1CCC[C@@H]1OCc1ccc(-c2ccc3c(c2)CCC[C@@H]3N2CCN(C[C@H](O)CO)CC2)cc1 [Example 173, 6-amino-N-[(1S,2S)-2-({4-[(5S)-5-{4-[(2S)-2,3-dihydroxypropyl]piperazin-1-yl}-5,6,7,8-tetrahydronaphthalen-2-yl]phenyl}methoxy)cyclopentyl]-2′-fluoro[3,3′-bipyridine]-5-carboxamide]
IC50 [1]: 10 to 100 nM
IC50 [3]: < 10 nM

Nc1ncc(-c2ccc(F)nc2)cc1C(=O)N[C@H]1CCC[C@@H]1OCc1ccc(-c2ccc3c(c2)CC[C@@H]3N2CCN(CC(O)CO)CC2)cc1 (stereo partly drawn) [Example 100, 6-amino-N-{(1S,2S)-2-[(4-{(1S)-1-[4-(2,3-dihydroxypropyl)piperazin-1-yl]-2,3-dihydro-1H-inden-5-yl}phenyl)methoxy]cyclopentyl}-6′-fluoro[3,3′-bipyridine]-5-carboxamide]
IC50 [1]: 100 to 1000 nM
IC50 [3]: < 10 nM

Nc1ncc(-c2cccnc2F)cc1C(=O)N[C@H]1CCC[C@@H]1OCc1ccc(-c2ccc3c(c2)CC[C@@H]3N2CCN(CC(O)CO)CC2)cc1 (stereo partly drawn) [Example 102, 6-amino-N-{(1S,2S)-2-[(4-{(1S)-1-[4-(2,3-dihydroxypropyl)piperazin-1-yl]-2,3-dihydro-1H-inden-5-yl}phenyl)methoxy]cyclopentyl}-2′-fluoro[3,3′-bipyridine]-5-carboxamide]
IC50 [1]: 100 to 1000 nM
IC50 [3]: < 10 nM
